Values of other authors as cited in patent US8337856B2, “Methods of treatment using anti-ERBB antibody-maytansinoid conjugates” (Immunogen, Inc., priority 2000, dated 2012).

Conditions: clinical trials discontinued

SMILES: COc1cc2cc(c1Cl)N(C)C(=O)C[C@H](OC(=O)[C@H](C)N(C)C(C)=O)[C@]1(C)O[C@H]1[C@H](C)[C@@H]1C[C@@](O)(NC(=O)O1)[C@H](OC)/C=C/C=C(\C)C2 [maytansine, Maytansine]
- adverse effects in clinical trials: serious adverse effects on the central nervous system and gastrointestinal system
